Experimental data reported in US7022843B1, “β,β′-dihydroxy meso-substituted chlorins, isobacteriochlorins, and bacteriochlorins” (priority 1999, dated 2006).
Values joined by “and” are separate entries in the source; they are usually repeats but may differ in a detail not shown here. Equal entries are not always repeated. Where two headings read alike, the source gives them in different places.

Assays:
[1] = system: L1210 cells; test: Phototoxicity in L1210 cells, MTT viability assay; format: cell-based; settings: phototoxicity, L1210 cells
Description: The above described compounds were tested in vitro for phototoxicity and dark toxicity in L1210 cells as described in the Example section below. Twenty four compounds which were tested for cytotoxicity are listed in Table 3 below along with BPD-MA.
(§1) Phototoxicity was determined with L11210 cells in the presence of the compound as follows: the L1210 cells were exposed to varying concentrations of the compounds in 96-well microtiter plates for one hour at 37° C. and 5% CO2. No fetal calf serum (FCS) was added at this time. The plate was then illuminated for one hour after which a 10% aqueous FCS solution was added to the wells. The plates were then returned to the CO2 incubator overnight. After incubation, the cells were assayed for viability using the MTT assay (Mossman, T. J. Immunol. Meth. 1983, 65, 55).

[2] = system: L1210 cells; test: Dark cytotoxicity in L1210 cells (plates wrapped in aluminum foil); format: cell-based
Description: The above compounds were also tested for dark toxicity. Dark toxicity refers to the toxicity of the drug to cells in the absence of light. This toxicity is, therefore, not due to singlet oxygen mediated cellular damage.
as §1
Dark cytotoxicity was determined while the plates were wrapped in aluminum foil while under the light source.

[3] = 1 h exposure without FCS, 1 h illumination, MTT

| SMILES | LD50 [1, 3] | LD50 ([1]; Table 4) | LD50dark [2] | LD20dark ([2]; L1210 cells, absence of light) | LD50dark ([2]; L1210 cells, absence of light) |
| --- | --- | --- | --- | --- | --- |
| OC1c2nc(c(-c3ccccc3)c3ccc([nH]3)c(-c3ccccc3)c3nc(c(-c4ccccc4)c4ccc([nH]4)c2-c2ccccc2)C=C3)C1O (stereo not drawn) [Compound 3, H2TPC(OH)2] | 2.78 M and 1800 ng/mL | 1800 ng/mL | 19000 ng/mL | 7000 ng/mL |  |
| O=[N+]([O-])c1cccc(-c2c3nc(c(-c4cccc([N+](=O)[O-])c4)c4ccc([nH]4)c(-c4cccc([N+](=O)[O-])c4)c4nc(c(-c5cccc([N+](=O)[O-])c5)c5ccc2[nH]5)C(O)C4O)C=C3)c1 (stereo not drawn) [Compound 4, T(m-NO2)PC(OH)2] | 5.43 M and 4500 ng/mL | 4500 ng/mL | 15000 ng/mL | 4500 ng/mL |  |
| OC1c2nc(c(-c3ccc(Br)cc3)c3ccc([nH]3)c(-c3ccc(Br)cc3)c3nc(c(-c4ccc(Br)cc4)c4ccc([nH]4)c2-c2ccc(Br)cc2)C=C3)C1O (stereo not drawn) [Compound 5, T(p-Br)PC(OH)2] | 6.22 M and 6000 ng/mL | 6000 ng/mL | 8000 ng/mL | 1900 ng/mL |  |
| OC1c2nc(c(-c3cccc(Br)c3)c3ccc([nH]3)c(-c3cccc(Br)c3)c3nc(c(-c4cccc(Br)c4)c4ccc([nH]4)c2-c2cccc(Br)c2)C=C3)C1O (stereo not drawn) [Compound 6, T(m-Br)PC(OH)2] | 4.15 M and 4000 ng/mL | 4000 ng/mL | 4000 ng/mL | 1500 ng/mL |  |
| OC1c2nc(c(-c3cccc(F)c3)c3ccc([nH]3)c(-c3cccc(F)c3)c3nc(c(-c4cccc(F)c4)c4ccc([nH]4)c2-c2cccc(F)c2)C=C3)C1O (stereo not drawn) [Compound 7, T(m-F)PC(OH)2] | 6.87 M and 5000 ng/mL | 5000 ng/mL | 6000 ng/mL | 1500 ng/mL |  |
| OC1c2nc(c(-c3ccccc3F)c3ccc([nH]3)c(-c3ccccc3F)c3nc(c(-c4ccccc4F)c4ccc([nH]4)c2-c2ccccc2F)C=C3)C1O (stereo not drawn) [Compound 8, T(o-F)PC(OH)2] | 4.17 M and 3000 ng/mL | 3000 ng/mL | 15000 ng/mL | 5000 ng/mL |  |
| OC1c2nc(c(-c3c(F)c(F)c(F)c(F)c3F)c3ccc([nH]3)c(-c3c(F)c(F)c(F)c(F)c3F)c3nc(c(-c4c(F)c(F)c(F)c(F)c4F)c4ccc([nH]4)c2-c2c(F)c(F)c(F)c(F)c2F)C=C3)C1O (stereo not drawn) [Compound 9, TF5PC(OH)2] | 1.79 M and 1800 ng/mL | 100 ng/mL | 12000 ng/mL | 5000 ng/mL |  |
| Oc1ccc(-c2c3nc(c(-c4ccc(O)cc4)c4ccc([nH]4)c(-c4ccc(O)cc4)c4nc(c(-c5ccc(O)cc5)c5ccc2[nH]5)C(O)C4O)C=C3)cc1 (stereo not drawn) [Compound 10, T(p-OH)PC(OH)2] | 4.92 M and 3500 ng/mL | 3500 ng/mL | 15000 ng/mL | 5000 ng/mL |  |
| Oc1cccc(-c2c3nc(c(-c4cccc(O)c4)c4ccc([nH]4)c(-c4cccc(O)c4)c4nc(c(-c5cccc(O)c5)c5ccc2[nH]5)C(O)C4O)C=C3)c1 (stereo not drawn) [Compound 11, T(m-OH)PC(OH)2] | 0.0211 M and 15 ng/mL | 15 ng/mL | 12500 ng/mL | 10000 ng/mL |  |
| COC(=O)c1ccc(-c2c3nc(c(-c4ccc(C(=O)OC)cc4)c4ccc([nH]4)c(-c4ccc(C(=O)OC)cc4)c4nc(c(-c5ccc(C(=O)OC)cc5)c5ccc2[nH]5)C(O)C4O)C=C3)cc1 (stereo not drawn) [Compound 12, T(p-CO2Me)PC(OH)2] | 0.136 M and 120 ng/mL | 120 ng/mL |  | 3000 ng/mL | 15000 ng/mL |
| COc1cccc(-c2c3nc(c(-c4cccc(OC)c4)c4ccc([nH]4)c(-c4cccc(OC)c4)c4nc(c(-c5cccc(OC)c5)c5ccc2[nH]5)C(O)C4O)C=C3)c1 (stereo not drawn) [Compound 15, T(m-OCH3)PC(OH)2] | 1.3 M and 1000 ng/mL |  |  |  |  |
| COc1cc(OC)cc(-c2c3nc(c(-c4cc(OC)cc(OC)c4)c4ccc([nH]4)c(-c4cc(OC)cc(OC)c4)c4nc(c(-c5cc(OC)cc(OC)c5)c5ccc2[nH]5)C(O)C4O)C=C3)c1 (stereo not drawn) [Compound 16, T(m,m′-OCH3)PC(OH)2] | 2.25 M and 2000 ng/mL | 2000 ng/mL | 12000 ng/mL | 5000 ng/mL |  |
